What was measured:
[1] = Plasma pharmacokinetics of CKLP1 and levcromakalim after topical dosing in hound dogs; assay type: in vivo, hound dog
Procedure: To assess the pharmacokinetic parameters, hound dogs (n=3) were treated with 50 μL topical ocular administration of 10 mM CKLP1 or vehicle (PBS) (n=2) in both eyes, once daily for eight days. Blood (approximately 3 mL) was collected in heparin blood collection tubes at eight different time points (5 minutes, 15 minutes, 30 minutes, 60 minutes, 2 hours, 4 hours, 8 hours and 24 hours) following treatment on days 1, 4 and 8. Plasma was separated from the blood by centrifugation at 2000 rpm for 5 minutes.
Immediately prior to analysis, tissues were thawed and their weight was measured. PBS was added at double the tissue volume homogenized in a rotor stator homogenizer for 30 seconds. […] Detection was accomplished using positive electrospray ionization with multiple-reaction monitoring (MRM). […] Data were acquired and analyzed using Waters MassLynx v4.1 software.

[2] = Toxicokinetics after escalating intravenous doses of CKLP1 in beagles; assay type: in vivo, beagle dog; conditions: beagle, dog, in vivo, iv
Procedure: Two beagles (one male and one female) were intravenously injected with escalating doses of CKPL1 (0.05 mg/kg, 0.5 mg/kg, 1.5 mg/kg, 3 mg/kg, and 5 mg/kg) to assess the toxicity of CKLP1. The injection was done through the cephalic vein and CKLP1 was administered in a phosphate buffered saline solution ((0.096% sodium phosphate dibasic, 0.089% sodium dihydrogen orthophosphate monohydrate, 0.83% sodium chloride) pH 6.5±0.1 in sterile water for injection USP). The dosing schedule is shown below in Table 3.
The following parameters and endpoints were evaluated: mortality, clinical observations, body and organ weights, and food consumption. Bioanalytical samples for toxicokinetic parameters (for both CKLP1 and leveromakalim) were collected after each dose level (days 1, 3, 8, 10, and 14) at predose, 1, 3, 6, 8, and 24 hours postdose. Animals were released from the study after completion of the bioanalytical sample collection schedule.
Toxicokinetics (TK) were determined based on the individual exposures for each animal on each sampled study day (days 1, 3, 8, 10, and 14). […] Predose samples had no quantifiable exposure in any animal on any day, with the exception of the female dog on day 10. The predose concentration for the female dog on day 10 was excluded from the TK analysis in order to allow for estimation of the IV C0.

[3] = hound, dog, plasma, topical or ocular, 10 mM CKLP1, 50 µL in each of both eyes, levcromakalim after topical 10 mM CKLP1 once daily, Day 1
[4] = hound, dog, plasma, topical or ocular, 10 mM CKLP1, 50 µL in each of both eyes, levcromakalim after topical 10 mM CKLP1 once daily, Day 4
[5] = hound, dog, plasma, topical or ocular, 10 mM CKLP1, 50 µL in each of both eyes, levcromakalim after topical 10 mM CKLP1 once daily, Day 8
[6] = levcromakalim after topical 10 mM CKLP1 once daily, Day 1
[7] = levcromakalim after topical 10 mM CKLP1 once daily, Day 4
[8] = levcromakalim after topical 10 mM CKLP1 once daily, Day 8

With `CC1(C)Oc2ccc(C#N)cc2[C@@H](N2CCCC2=O)[C@@H]1O` [Levcromakalim, levcromakalim, reference compound] the “Maximum concentration of levcromakalim in plasma” value ([1]; after topical 10 mM CKLP1) was 1.2 ± 0.2 ng/mL, the “concentration of levcromakalim found in plasma” value ([1]; after topical CKLP1) was 1 ng/mL and the AUC ([1]; hound, dog, plasma, topical or ocular, 10 mM) was 3.88 ng·h/mL. The AUC(0-t) [1, 3] was 5.09 ng·h/mL, the Cmax [1, 3] was 1.3 ng/mL and the Tmax ([1]; hound, dog, plasma, topical or ocular, 10 mM CKLP1, 50 µL in each of both eyes, levcromakalim after topical 10 mM CKLP1 once daily, Day 1, read-out: Tmax (converted)) was 2 h. It also gave an AUC(0-t) [1, 4] of 6.3 ng·h/mL, a Cmax [1, 4] of 1.4 ng/mL and a Tmax ([1]; hound, dog, plasma, topical or ocular, 10 mM CKLP1, 50 µL in each of both eyes, levcromakalim after topical 10 mM CKLP1 once daily, Day 4, read-out: Tmax (converted)) of 2 h. It also gave an AUC(0-t) [1, 5] of 2.67 ng·h/mL, a Cmax [1, 5] of 1 ng/mL and a Tmax ([1]; hound, dog, plasma, topical or ocular, 10 mM CKLP1, 50 µL in each of both eyes, levcromakalim after topical 10 mM CKLP1 once daily, Day 8, read-out: Tmax (converted)) of 2 h. For the same compound, the half-life ([1]; hound, dog, plasma, topical or ocular, 10 mM, levcromakalim after topical 10 mM CKLP1 once daily, Day 1) was 74.3 min, the half-life ([1]; hound, dog, plasma, topical or ocular, 10 mM, levcromakalim after topical 10 mM CKLP1 once daily, Day 4) was 87.8 min and the half-life ([1]; hound, dog, plasma, topical or ocular, 10 mM, levcromakalim after topical 10 mM CKLP1 once daily, Day 8) was 126 min. The Tmax ([1]; hound, dog, plasma, topical or ocular, 10 mM, time of maximum concentration (Tmax) of levcromakalim, after topical 10 mM CKLP1) was roughly 2 h, the half-life ([1]; hound, dog, plasma, topical, 10 mM, as stated in the summary) was 120 min and the Clast [1, 6] was 0.1 ng/mL. The Tlast [1, 6] was 480 min, the Clast [1, 7] was 0.1 ng/mL and the Tlast [1, 7] was 480 min. For the same compound, the Clast [1, 8] was 0.5 ng/mL, the Tlast [1, 8] was 240 min and the AUC(0-t) ([2]; both sexes, 3 mg/kg, read-out: AUCTlast at MTD, sex-combined) was 431 ng·h/mL. It also gave a Cmax ([2]; both sexes, 3 mg/kg, read-out: Cmax at MTD, sex-combined) of 35.5 ng/mL, an AUCTlast ([2]; female, 0.5 mg/kg) of 81.3 ng·h/mL and a T1/2 ([2]; female, 0.5 mg/kg) of 10.3 h. For the same compound, the “AUC(0-inf)” value ([2]; female, 1.5 mg/kg) was 272 ng·h/mL, the AUCTlast ([2]; female, 1.5 mg/kg) was 241 ng·h/mL and the Cmax ([2]; female, 1.5 mg/kg) was 15.6 ng/mL. The T1/2 ([2]; female, 1.5 mg/kg) was 7.58 h, the Tmax ([2]; female, 1.5 mg/kg) was 3.00 h and the “AUC(0-inf)” value ([2]; female, 3 mg/kg) was 404 ng·h/mL. The AUCTlast ([2]; female, 3 mg/kg) was 386 ng·h/mL, the Cmax ([2]; female, 3 mg/kg) was 28.3 ng/mL and the T1/2 ([2]; female, 3 mg/kg) was 5.07 h. It also gave a Tmax ([2]; female, 3 mg/kg) of 6.00 h, an AUCTlast ([2]; female, 5 mg/kg) of 1040 ng·h/mL and a T1/2 ([2]; female, 5 mg/kg) of 7.82 h. It also gave an AUCTlast ([2]; male, 0.05 mg/kg) of 5.04 ng·h/mL, a T1/2 ([2]; male, 0.05 mg/kg) of 9.66 h and an AUCTlast ([2]; male, 0.5 mg/kg) of 45.5 ng·h/mL. For the same compound, the T1/2 ([2]; male, 0.5 mg/kg) was 6.89 h, the “AUC(0-inf)” value ([2]; male, 1.5 mg/kg) was 192 ng·h/mL and the AUCTlast ([2]; male, 1.5 mg/kg) was 183 ng·h/mL. The Cmax ([2]; male, 1.5 mg/kg) was 18.0 ng/mL, the T1/2 ([2]; male, 1.5 mg/kg) was 5.27 h and the Tmax ([2]; male, 1.5 mg/kg) was 1.00 h. For the same compound, the “AUC(0-inf)” value ([2]; male, 3 mg/kg) was 518 ng·h/mL, the AUCTlast ([2]; male, 3 mg/kg) was 476 ng·h/mL and the Cmax ([2]; male, 3 mg/kg) was 42.7 ng/mL. The T1/2 ([2]; male, 3 mg/kg) was 6.48 h, the Tmax ([2]; male, 3 mg/kg) was 1.00 h and the AUCTlast ([2]; male, 5 mg/kg) was 741 ng·h/mL. The T1/2 ([2]; male, 5 mg/kg) was 7.67 h.
